These results are taken from patent US6380177B1, “LPA analogs as agonists of the Edg2 LPA receptor” (Atairgin Technologies, Inc., priority 1999, dated 2002).

Entries after “also recorded” stand apart in the source; their conditions may differ.

The target of assay [1] is T1, Edg2 receptor (Homo sapiens, UniProt Q92633).
T1 construct: expressed in transfected cells; host or cells: Saccharomyces cerevisiae JEY5 + pJE15
Briefly: FUS1::lacZ reporter assay in yeast expressing the Edg2 receptor. Format: cell-based. Conditions: for activation of FUS1::lacZ by 18:1 analogs (FIG. 4): 200 μM LPA or LPA analog, 18:1 acyl LPA as 100%. An excerpt: A yeast expressing the Edg2 receptor is one way to avoid such problems of multiple receptors. Edg2 has been functionally expressed in the yeast Saccharomyces cerevisiae and provides a facile system with which to analyze this particular receptor. Edg2 couples to the yeast pheromone response pathway selectively in response to exogenously added LPA and activates two easily assayed reporter genes, lacZ and HIS3, that are fused to the pheromone-inducible FUS1 promoter. […] Although the yeast assay is relatively insensitive to LPA compared with mammalian signaling events (the yeast assay has an E.C.50 of 20 μM), yeast offers the advantage of specificity; the induction of FUS1::lacZ by LPA is absolutely dependent on the Edg2 receptor being expressed.
LacZ assays in response to lysophosphatidic acid and LPA analogs- JEY5+pJE15 was grown on SC media containing either 2% galactose or 2% glucose lacking uracil to an approximate O.D. of 0.1-0.5 prior to the addition of lipid or α-factor. Acyl-LPA chain length analogs; 6:0, 10:0, 14:0, 16:0, 18:0, 18:1 and 24:1 (Avanti Polar Lipids) were stored dissolved in chloroform and dried down under vacuum immediately prior to experiments and resuspended in BBS/EDTA (50 mM NH4HCO3, 104 mM NaCl, 250 μM EDTA2Na pH 7.63) at 20 mM with sonication until the solution was clear. The other analogs that were custom synthesized for this report were stored in 100% ethanol at −20° C., dried and resuspended in BBS/EDTA immediately prior to use. Analogs not having a phosphate were stored in 100% DMSO and added directly to the yeast culture. […] Cells were grown for 7 hours prior to assaying at which time 100 μl of yeast culture were then added to […] assay buffer (60 mM Na2HPO4, 40 mM NaH2PO4, 10 mM KCl, 0.1 mM MgSO4, pH 7.0 plus 2.7 mL β-mercaptoethanol per liter) plus 50 μl 0.1% SDS+three drops Chloroform. Cells were vortexed for 10 seconds and incubated for 5 minutes at 28° C. 200 μl of 4mg/ml o-nitrophenol-β-D-galactopyranoside (ONPG, Sigma) was added and the reaction was incubated 30 minutes at 28° C. The assay was stopped by the addition of 500 μl 1M Na2CO3. Color development was measured at A420 and normalized to A600. Units were expressed as Miller Units. Competition assays between 18:1 acyl-LPA and the short chain analogs were essentially performed in the same manner except that both lipids were added simultaneously and the yeast was allowed to grow for the standard seven-hour time period. ERK immune complex kinase assays- C3H/10T½ cells were cultured in Basal Medium Eagle (BME, Gibco)+10% heat inactivated fetal calf serum until quiescent in 6 cm dishes. Cultures were serum starved for 18 hours in BME and stimulated with LPA or an LPA analog for 5 minutes. Dishes were placed on ice, washed with ice cold PBS and lysed in 500 μL lysis buffer (20 mM Tris pH8.0, 137 mM NaCl, 1mM EGTA, 1% Triton X-100, 10% glycerol, 15 mM MgCl2, 1 mM NaVO4, 50 mM NaF, 1mM Pefabloc, 20 μM Leupeptin, 10 μg/mL Aprotinin). To 200 μg total protein, 2 μL anti-ERK1 and 2 μL anti-ERK2 (Santa Cruz) plus 20 μL protein G-agarose beads (Boehringer-Mannheim, 50% slurry) were added and incubated with continuous rocking for two hours at 4° C. The agarose bead-ERK immune complexes were washed twice with 1mL lysis buffer then once in 1mL kinase buffer (30 mM Tris pH 8.0, 20 mM MgCl2, 2 mM MnCl2) and then drained to dryness with a fine gauge Hamilton syringe. The kinase reaction was started by adding 30 μL kinase buffer containing 2 μg myelin basic protein (MBP, Sigma), 10 μM cold ATP and 2.5 μCi [^32P]γ-ATP (Amersham). The reaction was incubated for 25 minutes at 30° C. and then stopped by the addition of 10 μL hot 4×-sample buffer. The phosphorylated MBP was resolved on a 14% SDS-PAGE gel (Novex), stained, dried and the Coomassie Brilliant Blue-stained band was excise and counted on a liquid scintillation counter (Beckman).

For a further assay, the system named is ERK1 and ERK2. Briefly: ERK immune complex kinase assay in C3H/10T½ fibroblasts. Format: cell-based, Murine. Conditions: C3H/10T½ fibroblasts treated with 10M analogue, stimulated 5 minutes. As for the experimental part:
Since Edg2 couples to Gpa1, this receptor could also couple to Gi in mammalian cells as well. […] Murine C3H/10T½ fibroblasts were treated with […] analogue and assayed for induction of ERK½ activity. […] The structural requirements of LPA with respect to ERK activation are quite different from the yeast Edg2 lacZ reporter assay. For example, the hydroxyl on the sn-2 carbon of the glycerol can be substituted with little effect in the Edg2-mediated activation of FUS1::lacZ whereas in ERK activation, loss of this hydroxyl almost completely abolishes activity.
LacZ assays in response to lysophosphatidic acid and LPA analogs- JEY5+pJE15 was grown on SC media containing either 2% galactose or 2% glucose lacking uracil to an approximate O.D. of 0.1-0.5 prior to the addition of lipid or α-factor. […] Color development was measured at A420 and normalized to A600. Units were expressed as Miller Units. […] The phosphorylated MBP was resolved on a 14% SDS-PAGE gel (Novex), stained, dried and the Coomassie Brilliant Blue-stained band was excise and counted on a liquid scintillation counter (Beckman).

Assay [2] addresses T1, Edg2 receptor. Conditions: cited from earlier work; for activation of FUS1::lacZ (previously known): yeast expressing the Edg2 receptor, previously known results.
Assay [3] relates to MDA MB 231 cells. Conditions: cited from earlier work.
For assay [4], the system named is MDA MB 231 cells. Conditions: cited from earlier work. This is another data set of the same source.
A further assay concerns ERK. Briefly: ERK activity in A549 lung carcinoma overexpressing Edg2 mRNA. Format: cell-based. Conditions: overexpresses Edg2 mRNA. An excerpt: Edg2 is not involved in the activation of the MAPKinase ERK. This is somewhat surprising since Edg2 coupled to the endogenous Saccharomyces G-protein, it was reasonable to conclude that Edg2 may couple to mammalian Gi heterotrimeric G-proteins. If this were true, then Edg2 would activate ERK, which is activated by LPA in a pertusis toxin-dependent manner. However, the SAR of LPA for ERK activation is completely different from the SAR of LPA-mediated activation of FUS1::lacZ and calcium mobilization. It is unlikely that expressing this receptor in yeast has changed its ligand binding characteristics. The somatostatin 2A receptor when expressed in yeast maintains it's binding profiles when compared with mammalian cells.

T1 sequence (Q92633 whole entry): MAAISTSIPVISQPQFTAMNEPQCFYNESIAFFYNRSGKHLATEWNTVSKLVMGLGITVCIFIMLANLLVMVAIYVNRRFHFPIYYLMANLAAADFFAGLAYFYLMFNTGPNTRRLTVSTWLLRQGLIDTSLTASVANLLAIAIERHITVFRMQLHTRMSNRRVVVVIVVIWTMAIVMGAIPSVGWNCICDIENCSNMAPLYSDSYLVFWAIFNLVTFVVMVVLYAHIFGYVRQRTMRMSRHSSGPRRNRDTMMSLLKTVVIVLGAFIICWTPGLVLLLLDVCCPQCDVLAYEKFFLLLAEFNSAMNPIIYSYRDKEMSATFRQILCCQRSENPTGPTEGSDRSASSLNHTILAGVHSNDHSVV

Turning to `CCCCCCCC/C=C\CCCCCCCC(=O)OCC(CO)OC` (racemic) [Compound 17, 1-O-Oleoyl-2-O-methyl-rac-glycerol], the “activation of FUS1::lacZ by 18:1 analogs (FIG. 4)” value on Edg2 receptor [1] is listed as “still retained some lacZ activity”.

As for `CCCCCCCC/C=C\CCCCCCCC(=O)OCC(COP(=O)(OC)OC)OC` (racemic) [Compound 18, Dimethyl 3-O-oleoyl-2-O-methyl-rac-glycero-1-phosphate], the “activation of FUS1::lacZ by 18:1 analogs (FIG. 4)” value on Edg2 receptor [1] is “had less lacZ activity”.

Take `CCCCCCCC/C=C\CCCCCCCC(=O)OCC(Br)COP(=O)(O)O` (racemic) [Compound 23, 3-O-Oleoyl-2-deoxy-2-bromo-rac-glycero-1-phosphate]: the “activation of FUS1::lacZ by 18:1 analogs (FIG. 4)” value at Edg2 receptor [1] was “retained some FUS1::lacZ activity”.

For the compound `CCCCCCCC/C=C\CCCCCCCCOCC(O)COP(=O)(O)O` (racemic) [Compound 26, 3-O-Oleyl-rac-glycero-1-phosphate], the “activation of ERK½ (FIG. 5)” value with ERK1 and ERK2 is “can activate ERK almost as well as the ester form”. Further, on Edg2 receptor [1], the “activation of FUS1::lacZ by 18:1 analogs (FIG. 4)” value is “inactive”.

On to `CCCCCCCC/C=C\CCCCCCCCOCC(COP(=O)(O)O)OC` (racemic) [Compound 36, 3-O-Oleyl-2-O-methyl-rac-glycero-1-phosphate], for which the “activation of FUS1::lacZ by 18:1 analogs (FIG. 4)” value at Edg2 receptor [1] is “inactive”.

On to `CCCCCC(=O)OC[C@@H](O)COP(=O)(O)O` [Compound 1], for which the “activation of FUS1::lacZ (previously known)” value at Edg2 receptor [2] is “inactive”.

Take `CCCCCCCCCC(=O)OC[C@@H](O)COP(=O)(O)O` [Compound 2]: on Edg2 receptor [2], the “activation of FUS1::lacZ (previously known)” value is “inactive”.

In the case of `CCCCCCCCCCCCCC(=O)OC[C@@H](O)COP(=O)(O)O` [Compound 3, reference compound], the “activation of FUS1::lacZ, dependence on acyl chain length (FIG. 2)” value at Edg2 receptor [1] (yeast expressing the Edg2 receptor, acyl-LPA chain length analogs) was “inactive”.

In the case of `CCCCCCCCCCCCCCCC(=O)OC[C@@H](O)COP(=O)(O)O` [Compound 4], the “activation of FUS1::lacZ (previously known)” value at Edg2 receptor [2] was “significant activity”.

For `CCCCCCCCCCCCCCCCCC(=O)OC[C@@H](O)COP(=O)(O)O` [Compound 5], the “activation of FUS1::lacZ (previously known)” value on Edg2 receptor [2] is on record as “significant activity”.

Turning to `CCCCCCCC/C=C\CCCCCCCC(=O)OC[C@@H](O)COP(=O)(O)O` [Compound 6], the “activation of FUS1::lacZ (previously known)” value at Edg2 receptor [2] is “most active”.

As to `CCCCCCCC/C=C\CCCCCCCC(=O)OCCCO` [Compound 10, 3-Hydroxypropyl oleate], the “activation of FUS1::lacZ by 18:1 analogs (FIG. 4)” value at Edg2 receptor [1] is on record as “still retained some lacZ activity”.

Consider `CCCCCCCC/C=C\CCCCCCCC(=O)OCCCOP(=O)(OC)OC` [Compound 11, Dimethyl 1-(3-propyl oleoate) phosphate], for which, at Edg2 receptor [1], the “activation of FUS1::lacZ by 18:1 analogs (FIG. 4)” value is “had less lacZ activity”.

For the compound `CCCCCCCC/C=C\CCCCCCCC(=O)OCCCOP(=O)(O)O` [Compound 12, 1-(3-propyl oleoate) phosphate], the “activation of ERK½ (FIG. 5)” value in the assay on ERK1 and ERK2 is reported as “does not activate ERK”. The “inhibition of cAMP accumulation” value in the assay on MDA MB 231 cells [3] is “does not inhibit cAMP accumulation”. Besides, in the assay with MDA MB 231 cells [4], the calcium mobilization result was “only slightly mobilizes calcium”. For the same compound, the “activation of FUS1::lacZ by 18:1 analogs (FIG. 4)” value at Edg2 receptor [1] was “retained some FUS1::lacZ activity; also recorded: increased activity significantly; also recorded: does activate FUS1::lacZ”.

`CCCCCCCC/C=C\CCCCCCCCOCCCOP(=O)(OC)OC` [Compound 29, Dimethyl 3-oleyloxypropyl-1-phosphate]: the “activation of FUS1::lacZ by 18:1 analogs (FIG. 4)” value at Edg2 receptor [1] was “inactive”.

For “O-acyl-2-hydroxyl-sn-glycero-3-phosphate [LPA]”, the EC50 at Edg2 receptor [2] (yeast expressing Edg2, FUS1::lacZ reporter, read-out: E.C.50 of the yeast assay) was 20 µM. Besides, the “stimulation of ERK activity” value with ERK was “does not stimulate ERK activity”.
